ChEMBL document CHEMBL2029272, “7-Azabicyclo[2.2.1]heptane as a scaffold for the development of selective sigma-2 (σ2) receptor ligands” (Bioorg Med Chem Lett, 2012)

Legend:
[1] = biological target: Histamine H4 receptor (Homo sapiens) (UniProt Q9H3N8); assay: Inhibition of H4 receptor at 10 uM
[2] = biological target: D(1A) dopamine receptor (Homo sapiens) (UniProt P21728); assay: Inhibition of D1 dopamine receptor at 10 uM
[3] = biological target: Histamine H2 receptor (Homo sapiens) (UniProt P25021); assay: Inhibition of H2 receptor at 10 uM
[4] = biological target: Sodium-dependent noradrenaline transporter (Homo sapiens) (UniProt P23975); assay: Inhibition of NET at 10 uM
[5] = biological target: Histamine H1 receptor (Homo sapiens) (UniProt P35367); assay: Inhibition of H1 receptor at 10 uM
[6] = biological target: 5-hydroxytryptamine receptor 1E (Homo sapiens) (UniProt P28566); assay: Inhibition of 5-HT1E receptor at 10 uM
[7] = biological target: 5-hydroxytryptamine receptor 2A (Homo sapiens) (UniProt P28223); assay: Inhibition of 5-HT2A receptor at 10 uM
[8] = biological target: T1, 5-hydroxytryptamine receptor 1A (Homo sapiens) (UniProt P08908); assay: Inhibition of 5-HT1A receptor at 10 uM
T1 sequence (whole entry): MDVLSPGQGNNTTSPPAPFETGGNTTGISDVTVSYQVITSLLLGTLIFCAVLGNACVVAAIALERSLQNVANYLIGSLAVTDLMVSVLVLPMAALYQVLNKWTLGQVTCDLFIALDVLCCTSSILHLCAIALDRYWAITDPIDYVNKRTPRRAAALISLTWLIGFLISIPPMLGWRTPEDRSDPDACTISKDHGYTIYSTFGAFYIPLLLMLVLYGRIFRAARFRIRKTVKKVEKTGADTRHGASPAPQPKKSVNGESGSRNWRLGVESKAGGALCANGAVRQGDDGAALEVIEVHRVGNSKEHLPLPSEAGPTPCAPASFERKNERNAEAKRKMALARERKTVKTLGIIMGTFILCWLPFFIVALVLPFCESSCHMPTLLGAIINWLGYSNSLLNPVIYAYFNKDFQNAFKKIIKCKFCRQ

[9] = biological target: Beta-2 adrenergic receptor (Homo sapiens) (UniProt P07550); assay: Inhibition of beta2 adrenergic receptor at 10 uM
[10] = biological target: Sodium-dependent serotonin transporter (Homo sapiens, UniProt P31645); assay: Inhibition of SERT at 10 uM
[11] = biological target: 5-hydroxytryptamine receptor 1D (Homo sapiens) (UniProt P28221); assay: Inhibition of 5-HT1D receptor at 10 uM
[12] = biological target: 5-hydroxytryptamine receptor 2B (Homo sapiens) (UniProt P41595); assay: Inhibition of 5-HT2B receptor at 10 uM
[13] = biological target: T2, D(4) dopamine receptor (Homo sapiens) (UniProt P21917); assay: Inhibition of D4 dopamine receptor at 10 uM
T2 sequence (whole entry): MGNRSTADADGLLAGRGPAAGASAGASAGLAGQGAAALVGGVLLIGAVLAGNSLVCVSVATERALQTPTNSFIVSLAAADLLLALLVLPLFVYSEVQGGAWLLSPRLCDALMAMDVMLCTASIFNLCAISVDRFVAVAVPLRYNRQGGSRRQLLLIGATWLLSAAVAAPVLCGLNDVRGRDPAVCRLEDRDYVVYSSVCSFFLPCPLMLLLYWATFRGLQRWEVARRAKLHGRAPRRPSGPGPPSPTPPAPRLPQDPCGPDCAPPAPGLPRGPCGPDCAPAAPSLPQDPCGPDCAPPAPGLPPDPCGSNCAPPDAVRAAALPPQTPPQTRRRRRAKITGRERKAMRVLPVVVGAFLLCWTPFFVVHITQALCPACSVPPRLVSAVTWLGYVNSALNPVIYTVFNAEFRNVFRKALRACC

[14] = Inhibition of GABA-A receptor at 10 uM
[15] = Displacement of [3H]DTG from sigma2 receptor in […]; assay type: cell-based; details: pc-12
[16] = biological target: Alpha-2B adrenergic receptor (Homo sapiens) (UniProt P18089); assay: Inhibition of alpha2B adrenergic receptor at 10 uM
[17] = biological target: Delta-type opioid receptor (Homo sapiens) (UniProt P41143); assay: Inhibition of delta opioid receptor at 10 uM
[18] = biological target: Beta-3 adrenergic receptor (Homo sapiens) (UniProt P13945); assay: Inhibition of beta3 adrenergic receptor at 10 uM
[19] = biological target: Mu-type opioid receptor (Homo sapiens) (UniProt P35372); assay: Inhibition of mu opioid receptor at 10 uM
[20] = biological target: D(2) dopamine receptor (Homo sapiens, UniProt P14416); assay: Inhibition of D2 dopamine receptor at 10 uM
[21] = biological target: Muscarinic acetylcholine receptor M3 (Homo sapiens, UniProt P20309); assay: Inhibition of M3 muscarinic receptor at 10 uM
[22] = biological target: Beta-1 adrenergic receptor (Homo sapiens) (UniProt P08588); assay: Inhibition of beta1 adrenergic receptor at 10 uM
[23] = biological target: Histamine H3 receptor (Homo sapiens, UniProt Q9Y5N1); assay: Inhibition of H3 receptor at 10 uM
[24] = biological target: Kappa-type opioid receptor (Homo sapiens) (UniProt P41145); assay: Inhibition of kappa opioid receptor at 10 uM
[25] = biological target: 5-hydroxytryptamine receptor 6 (Homo sapiens) (UniProt P50406); assay: Inhibition of 5-HT6 receptor at 10 uM
[26] = biological target: Alpha-1B adrenergic receptor (Homo sapiens) (UniProt P35368); assay: Inhibition of alpha1B adrenergic receptor at 10 uM
[27] = biological target: 5-hydroxytryptamine receptor 7 (Homo sapiens) (UniProt P34969); assay: Inhibition of 5-HT7 receptor at 10 uM
[28] = biological target: Sodium-dependent dopamine transporter (Homo sapiens, UniProt Q01959); assay: Inhibition of DAT at 10 uM
[29] = biological target: T3, 5-hydroxytryptamine receptor 2C (Homo sapiens) (UniProt P28335); assay: Inhibition of 5-HT2C receptor at 10 uM
T3 sequence (whole entry): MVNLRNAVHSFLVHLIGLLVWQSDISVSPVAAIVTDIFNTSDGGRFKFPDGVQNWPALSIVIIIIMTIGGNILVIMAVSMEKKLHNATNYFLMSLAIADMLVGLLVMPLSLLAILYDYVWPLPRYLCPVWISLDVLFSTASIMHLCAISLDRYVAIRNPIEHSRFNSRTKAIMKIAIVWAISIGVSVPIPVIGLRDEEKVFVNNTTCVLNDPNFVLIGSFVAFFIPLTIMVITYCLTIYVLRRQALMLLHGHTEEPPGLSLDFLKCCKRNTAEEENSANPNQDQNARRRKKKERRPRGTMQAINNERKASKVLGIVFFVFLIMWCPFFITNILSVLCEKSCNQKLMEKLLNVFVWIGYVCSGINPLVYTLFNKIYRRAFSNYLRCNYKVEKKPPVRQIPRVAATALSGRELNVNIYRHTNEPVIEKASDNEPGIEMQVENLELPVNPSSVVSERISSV

[30] = biological target: Muscarinic acetylcholine receptor M1 (Homo sapiens, UniProt P11229); assay: Inhibition of M1 muscarinic receptor
[31] = biological target: Muscarinic acetylcholine receptor M2 (Homo sapiens, UniProt P08172); assay: Inhibition of M2 muscarinic receptor

5-hydroxytryptamine receptor 2B (Homo sapiens), sequence (P41595 whole entry): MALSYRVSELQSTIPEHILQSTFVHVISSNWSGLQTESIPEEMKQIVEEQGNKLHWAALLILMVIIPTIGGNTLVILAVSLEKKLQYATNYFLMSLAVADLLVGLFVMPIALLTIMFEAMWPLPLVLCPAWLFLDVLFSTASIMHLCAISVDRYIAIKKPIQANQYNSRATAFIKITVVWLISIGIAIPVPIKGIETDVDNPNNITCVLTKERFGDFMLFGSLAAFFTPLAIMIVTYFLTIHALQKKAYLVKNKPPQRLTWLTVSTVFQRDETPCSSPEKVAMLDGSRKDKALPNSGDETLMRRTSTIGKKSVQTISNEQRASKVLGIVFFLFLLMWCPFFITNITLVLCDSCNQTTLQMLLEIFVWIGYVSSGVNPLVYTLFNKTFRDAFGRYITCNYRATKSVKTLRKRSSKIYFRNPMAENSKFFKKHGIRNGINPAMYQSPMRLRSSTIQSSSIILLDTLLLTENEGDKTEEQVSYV
Kappa-type opioid receptor (Homo sapiens), sequence (P41145 whole entry): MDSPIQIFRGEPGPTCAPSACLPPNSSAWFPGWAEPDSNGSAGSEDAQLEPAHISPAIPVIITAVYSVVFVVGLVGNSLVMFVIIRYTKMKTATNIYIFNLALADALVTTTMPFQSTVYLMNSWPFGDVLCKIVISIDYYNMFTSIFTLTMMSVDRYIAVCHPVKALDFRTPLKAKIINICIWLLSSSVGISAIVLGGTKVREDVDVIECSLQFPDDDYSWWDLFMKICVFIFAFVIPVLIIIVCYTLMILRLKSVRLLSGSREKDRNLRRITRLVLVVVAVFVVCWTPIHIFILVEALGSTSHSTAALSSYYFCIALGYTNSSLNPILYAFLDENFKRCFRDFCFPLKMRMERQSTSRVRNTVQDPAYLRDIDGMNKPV
D(2) dopamine receptor, sequence (P14416 whole entry): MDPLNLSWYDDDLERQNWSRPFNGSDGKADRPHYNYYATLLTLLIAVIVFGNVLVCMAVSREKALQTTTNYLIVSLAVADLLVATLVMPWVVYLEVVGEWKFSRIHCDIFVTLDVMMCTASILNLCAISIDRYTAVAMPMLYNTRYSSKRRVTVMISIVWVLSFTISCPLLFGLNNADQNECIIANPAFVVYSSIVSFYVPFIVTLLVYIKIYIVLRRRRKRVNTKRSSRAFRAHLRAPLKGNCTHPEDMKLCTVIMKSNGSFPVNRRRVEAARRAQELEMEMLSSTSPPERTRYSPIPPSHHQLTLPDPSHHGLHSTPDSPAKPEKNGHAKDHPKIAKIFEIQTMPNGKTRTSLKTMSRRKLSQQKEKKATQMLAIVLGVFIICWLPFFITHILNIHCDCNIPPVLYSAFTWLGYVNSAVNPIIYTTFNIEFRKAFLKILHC
Sodium-dependent noradrenaline transporter (Homo sapiens), sequence (P23975 whole entry): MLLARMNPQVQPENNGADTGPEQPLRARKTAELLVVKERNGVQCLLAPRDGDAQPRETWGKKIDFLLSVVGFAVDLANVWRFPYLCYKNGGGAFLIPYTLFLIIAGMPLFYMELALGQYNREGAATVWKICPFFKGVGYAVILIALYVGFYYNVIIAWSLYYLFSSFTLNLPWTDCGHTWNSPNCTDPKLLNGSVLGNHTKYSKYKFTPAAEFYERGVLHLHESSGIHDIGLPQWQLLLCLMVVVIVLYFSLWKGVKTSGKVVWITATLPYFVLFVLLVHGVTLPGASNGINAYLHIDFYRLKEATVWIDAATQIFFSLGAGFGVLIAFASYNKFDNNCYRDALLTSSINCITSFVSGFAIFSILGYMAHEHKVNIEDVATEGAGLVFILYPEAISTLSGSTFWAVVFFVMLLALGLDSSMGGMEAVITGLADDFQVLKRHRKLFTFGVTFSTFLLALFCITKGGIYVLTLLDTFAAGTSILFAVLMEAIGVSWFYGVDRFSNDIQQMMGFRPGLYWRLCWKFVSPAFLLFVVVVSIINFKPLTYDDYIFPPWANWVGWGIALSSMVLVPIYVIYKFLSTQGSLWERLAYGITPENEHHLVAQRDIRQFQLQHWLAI
5-hydroxytryptamine receptor 1D (Homo sapiens), sequence (P28221 whole entry): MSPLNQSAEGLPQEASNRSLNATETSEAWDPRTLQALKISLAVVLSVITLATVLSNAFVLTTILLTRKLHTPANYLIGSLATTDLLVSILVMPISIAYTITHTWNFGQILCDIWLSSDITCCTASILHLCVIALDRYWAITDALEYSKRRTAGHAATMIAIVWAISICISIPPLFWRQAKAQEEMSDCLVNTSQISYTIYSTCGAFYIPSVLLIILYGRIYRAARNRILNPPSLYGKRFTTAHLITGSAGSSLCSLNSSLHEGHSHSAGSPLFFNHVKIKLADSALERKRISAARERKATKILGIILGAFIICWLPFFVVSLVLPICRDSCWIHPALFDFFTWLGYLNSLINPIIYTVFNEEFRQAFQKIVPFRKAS
Mu-type opioid receptor (Homo sapiens), sequence (P35372 whole entry): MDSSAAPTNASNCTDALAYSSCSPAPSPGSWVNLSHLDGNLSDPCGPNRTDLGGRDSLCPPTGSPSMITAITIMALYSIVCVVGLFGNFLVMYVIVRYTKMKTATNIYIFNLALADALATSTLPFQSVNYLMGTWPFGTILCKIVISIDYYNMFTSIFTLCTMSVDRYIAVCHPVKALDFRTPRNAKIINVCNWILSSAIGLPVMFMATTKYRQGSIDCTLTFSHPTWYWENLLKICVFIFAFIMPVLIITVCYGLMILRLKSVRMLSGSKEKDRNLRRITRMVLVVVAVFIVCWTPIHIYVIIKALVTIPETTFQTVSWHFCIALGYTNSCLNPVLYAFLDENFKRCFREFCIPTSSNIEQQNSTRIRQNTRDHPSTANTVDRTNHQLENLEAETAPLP
5-hydroxytryptamine receptor 1E (Homo sapiens), sequence (P28566 whole entry): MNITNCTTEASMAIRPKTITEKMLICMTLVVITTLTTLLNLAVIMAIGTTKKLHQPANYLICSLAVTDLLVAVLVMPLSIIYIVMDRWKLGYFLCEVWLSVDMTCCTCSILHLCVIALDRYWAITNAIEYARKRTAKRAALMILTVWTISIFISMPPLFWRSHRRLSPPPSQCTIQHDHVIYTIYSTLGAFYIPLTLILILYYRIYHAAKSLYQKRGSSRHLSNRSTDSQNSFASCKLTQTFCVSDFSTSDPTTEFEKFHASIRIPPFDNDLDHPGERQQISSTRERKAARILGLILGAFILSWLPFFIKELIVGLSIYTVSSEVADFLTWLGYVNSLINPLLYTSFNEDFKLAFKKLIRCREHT
Sodium-dependent serotonin transporter, sequence (P31645 whole entry, looked up): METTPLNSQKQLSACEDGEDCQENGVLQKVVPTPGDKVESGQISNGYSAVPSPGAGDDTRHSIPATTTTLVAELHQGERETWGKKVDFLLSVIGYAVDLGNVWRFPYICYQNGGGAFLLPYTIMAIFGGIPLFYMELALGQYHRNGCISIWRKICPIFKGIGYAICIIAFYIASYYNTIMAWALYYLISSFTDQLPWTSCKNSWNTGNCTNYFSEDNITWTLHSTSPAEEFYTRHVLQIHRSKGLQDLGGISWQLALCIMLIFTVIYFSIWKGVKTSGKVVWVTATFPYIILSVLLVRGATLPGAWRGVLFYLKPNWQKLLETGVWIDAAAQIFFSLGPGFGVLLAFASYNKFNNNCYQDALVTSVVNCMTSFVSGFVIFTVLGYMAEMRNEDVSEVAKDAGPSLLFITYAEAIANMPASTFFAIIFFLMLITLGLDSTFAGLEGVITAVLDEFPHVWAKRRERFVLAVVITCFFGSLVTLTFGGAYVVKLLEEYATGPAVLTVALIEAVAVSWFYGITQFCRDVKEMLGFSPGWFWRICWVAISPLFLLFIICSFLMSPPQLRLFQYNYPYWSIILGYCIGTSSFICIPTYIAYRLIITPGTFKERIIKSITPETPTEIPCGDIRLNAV
Beta-2 adrenergic receptor (Homo sapiens), sequence (P07550 whole entry, looked up): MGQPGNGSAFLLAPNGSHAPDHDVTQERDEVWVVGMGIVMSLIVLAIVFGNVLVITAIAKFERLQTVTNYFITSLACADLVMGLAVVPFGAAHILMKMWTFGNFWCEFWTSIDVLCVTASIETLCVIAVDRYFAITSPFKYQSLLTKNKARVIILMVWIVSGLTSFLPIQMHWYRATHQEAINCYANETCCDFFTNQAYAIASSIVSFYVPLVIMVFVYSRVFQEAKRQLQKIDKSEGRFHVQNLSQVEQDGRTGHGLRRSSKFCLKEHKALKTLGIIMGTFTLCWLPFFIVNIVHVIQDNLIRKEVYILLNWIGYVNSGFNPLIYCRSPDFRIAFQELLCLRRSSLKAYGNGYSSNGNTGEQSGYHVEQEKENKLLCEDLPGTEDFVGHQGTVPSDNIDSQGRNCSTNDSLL
5-hydroxytryptamine receptor 7 (Homo sapiens), sequence (P34969 whole entry): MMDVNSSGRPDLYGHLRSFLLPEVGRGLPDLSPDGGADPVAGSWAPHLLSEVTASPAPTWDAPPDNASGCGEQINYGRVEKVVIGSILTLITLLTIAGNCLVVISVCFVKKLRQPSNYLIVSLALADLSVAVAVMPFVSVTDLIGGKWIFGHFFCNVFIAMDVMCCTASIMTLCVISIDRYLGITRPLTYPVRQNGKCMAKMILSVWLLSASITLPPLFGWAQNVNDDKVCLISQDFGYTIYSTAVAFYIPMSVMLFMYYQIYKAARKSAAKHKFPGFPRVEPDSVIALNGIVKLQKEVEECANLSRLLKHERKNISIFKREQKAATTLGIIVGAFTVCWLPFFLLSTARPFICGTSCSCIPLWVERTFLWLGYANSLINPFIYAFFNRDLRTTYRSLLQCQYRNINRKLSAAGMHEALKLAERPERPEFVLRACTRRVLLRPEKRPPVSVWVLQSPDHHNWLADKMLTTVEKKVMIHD
Delta-type opioid receptor (Homo sapiens), sequence (P41143 whole entry): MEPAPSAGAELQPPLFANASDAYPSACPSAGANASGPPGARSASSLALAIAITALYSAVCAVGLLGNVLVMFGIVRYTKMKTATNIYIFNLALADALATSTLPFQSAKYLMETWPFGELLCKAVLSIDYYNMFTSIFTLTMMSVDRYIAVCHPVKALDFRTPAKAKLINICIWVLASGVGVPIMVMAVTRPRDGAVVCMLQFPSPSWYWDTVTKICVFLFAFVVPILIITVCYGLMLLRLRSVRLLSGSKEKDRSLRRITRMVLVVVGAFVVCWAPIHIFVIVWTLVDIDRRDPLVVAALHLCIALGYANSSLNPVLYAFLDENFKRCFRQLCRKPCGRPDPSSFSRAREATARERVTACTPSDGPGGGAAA

Row | SMILES | inhibition [1] | inhibition [2] | inhibition [3] | inhibition [4] | inhibition [5] | inhibition [6] | inhibition [7] | inhibition [8] | inhibition [9] | inhibition [10] | inhibition [11] | inhibition [12] | inhibition [13] | inhibition [14] | Ki [15] | inhibition [17] | inhibition [18] | inhibition [19] | inhibition [20] | inhibition [22] | further results
1 | C1CCC(CN2CCCC2)CC1 | < 50% | < 50% | < 50% | < 50% | < 50% | < 50% | < 50% | < 50% | < 50% | < 50% | < 50% | < 50% | < 50% | < 50% | 410 nM | < 50% | < 50% | < 50% | < 50% | < 50% | inhibition [16]: < 50%; inhibition [21]: < 50%; inhibition [23]: < 50%; inhibition [24]: < 50%; inhibition [25]: < 50%; inhibition [26]: < 50%; inhibition [27]: < 50%; inhibition [28]: < 50%; inhibition [29]: < 50%
2 | C1CCC(CN2C3CCC2CC3)CC1 | < 50% | < 50% | < 50% | < 50% | < 50% | < 50% | < 50% | < 50% | < 50% | < 50% | < 50% | < 50% | < 50% | < 50% | 18 nM | < 50% | < 50% | < 50% | < 50% | < 50% | Ki [30]: 5540 nM; Ki [31]: 4740 nM; inhibition [16]: < 50%; inhibition [21]: < 50%; inhibition [23]: < 50%; inhibition [24]: < 50%; inhibition [25]: < 50%; inhibition [26]: < 50%; inhibition [27]: < 50%; inhibition [28]: < 50%; inhibition [29]: < 50%
3 | C1CC2CCC1N2CC12C3C4C5C3C1C5C42 (configuration not stated) | < 50% | < 50% | < 50% | < 50% | < 50% | < 50% | < 50% | < 50% | < 50% | < 50% | < 50% | < 50% | < 50% | < 50% | 18 nM | < 50% | < 50% | < 50% | < 50% | < 50% | Ki [30]: 7960 nM; Ki [31]: 696 nM; inhibition [23]: < 50%; inhibition [24]: < 50%; inhibition [25]: < 50%; inhibition [27]: < 50%; inhibition [29]: < 50%
